Assays:
[1] = system: MCF-7 breast cancer cell line; test: MTT in vitro antiproliferative assay; type: cell-based; settings: Homo sapiens, MCF7, 24 h, read-out: IC50 on the human MCF-7 cell line
VEGFR2 kinase = VEGFR2 kinase (Homo sapiens, UniProt P35968); test: biochemical
MCF-7 cells [2] = test: Cell cycle analysis by propidium iodide flow cytometry; type: cell-based, human; settings: MCF-7, 1.29 μM, 24 h; untreated control 2.4
[3] = system: human red blood cell (HRBC) membrane; test: HRBC membrane stabilization assay; type: cell-based; settings: Erythrocyte, read-out: percentage of inhibition of hemolysis (HRBC membrane stabilization)
MCF-7 cells [4] = test: Wound healing; type: cell-based, human; settings: MCF-7, IC50 concentration

VEGFR2 kinase, sequence (P35968 20-1356): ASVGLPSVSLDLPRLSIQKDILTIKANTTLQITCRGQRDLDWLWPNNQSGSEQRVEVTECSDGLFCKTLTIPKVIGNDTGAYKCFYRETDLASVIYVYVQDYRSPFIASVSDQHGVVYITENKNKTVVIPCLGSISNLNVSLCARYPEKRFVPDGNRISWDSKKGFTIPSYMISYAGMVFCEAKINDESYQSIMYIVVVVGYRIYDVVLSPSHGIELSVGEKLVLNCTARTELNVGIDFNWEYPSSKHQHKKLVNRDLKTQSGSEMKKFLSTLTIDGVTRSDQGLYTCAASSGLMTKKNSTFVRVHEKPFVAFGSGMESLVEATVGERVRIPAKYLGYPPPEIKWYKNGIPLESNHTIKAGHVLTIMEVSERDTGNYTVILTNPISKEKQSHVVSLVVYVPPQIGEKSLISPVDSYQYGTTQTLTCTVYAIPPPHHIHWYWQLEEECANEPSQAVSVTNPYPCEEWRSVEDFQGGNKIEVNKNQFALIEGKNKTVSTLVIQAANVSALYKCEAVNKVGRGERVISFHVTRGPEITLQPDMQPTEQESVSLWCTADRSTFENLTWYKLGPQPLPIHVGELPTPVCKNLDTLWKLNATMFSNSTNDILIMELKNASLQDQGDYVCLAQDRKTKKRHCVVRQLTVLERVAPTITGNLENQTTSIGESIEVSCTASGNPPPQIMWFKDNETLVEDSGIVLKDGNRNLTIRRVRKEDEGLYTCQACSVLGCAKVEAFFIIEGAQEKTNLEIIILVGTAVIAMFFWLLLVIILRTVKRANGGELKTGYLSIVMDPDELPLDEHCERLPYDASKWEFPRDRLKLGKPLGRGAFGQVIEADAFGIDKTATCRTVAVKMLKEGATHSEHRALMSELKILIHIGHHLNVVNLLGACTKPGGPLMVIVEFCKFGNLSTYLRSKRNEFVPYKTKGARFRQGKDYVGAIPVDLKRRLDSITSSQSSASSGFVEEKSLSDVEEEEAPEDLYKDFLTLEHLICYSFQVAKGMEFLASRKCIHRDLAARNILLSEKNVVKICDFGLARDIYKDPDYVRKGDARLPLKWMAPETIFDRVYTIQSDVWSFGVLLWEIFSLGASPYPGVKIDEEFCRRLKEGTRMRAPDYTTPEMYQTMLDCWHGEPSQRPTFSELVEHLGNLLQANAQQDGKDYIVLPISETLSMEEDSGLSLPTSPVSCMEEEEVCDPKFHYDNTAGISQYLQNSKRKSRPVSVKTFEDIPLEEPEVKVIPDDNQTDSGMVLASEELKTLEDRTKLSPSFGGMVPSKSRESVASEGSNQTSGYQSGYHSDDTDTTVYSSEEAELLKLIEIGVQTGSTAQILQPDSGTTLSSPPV

For `O=c1[nH]cc(F)c(=O)[nH]1` [5-fluorouracil, reference compound], the IC50 [1] was 7790 nM.

In the case of `O=C(CC1Sc2ccccc2NC1=O)c1ccc(F)cc1` (stereo not shown) [Compound 2a, 2-(2-(4-Fluorophenyl)-2-oxoethyl)-2H-benzo[b][1,4]thiazin-3(4H)-one], the IC50 (VEGFR2 kinase) is reported as 74.1 nM and the IC50 [1] is reported as 2260 nM.

`O=C(CC1Sc2ccccc2NC1=O)c1ccc(F)c(F)c1` (stereo not shown) [Compound 2b, 2-(2-(3,4-Difluorophenyl)-2-oxoethyl)-2H-benzo[b][1,4]thiazin-3(4H)-one] gave an IC50 (VEGFR2 kinase) of 59.3 nM and an IC50 [1] of 1370 nM.

In the case of `O=C(CC1Sc2ccccc2NC1=O)c1ccc(Cl)cc1` (stereo not shown) [Compound 2c, 2-(2-(4-Chlorophenyl)-2-oxoethyl)-2H-benzo[b] [1, 4]thiazin-3(4H)-one], the IC50 [1] is reported as 1290 nM, the “population of cells at G2/M phase” value (MCF-7 cells [2]) is reported as 1% and the inhibition at 125 µg/mL [3] is reported as 31.6%. The inhibition at 250 µg/mL [3] was 49.8%, the inhibition at 500 µg/mL [3] was 75.4% and the “wound healing percentage (percentage wound healing area) at 0 h” value (MCF-7 cells [4]; 0 h, control 66.42 ± 1.20) was 66.63 ± 0.66%. For the same compound, the “reduction in the area of the wound (percentage wound healing area) after 24 h” value (MCF-7 cells [4]; 24 h, control 43.23 ± 1.71) was 61.98 ± 1.44%.

Work on `O=C(CC1Sc2ccccc2NC1=O)c1ccc(Br)cc1` (stereo not shown) [Compound 2d, 2-(2-(4-Bromophenyl)-2-oxoethyl)-2H-benzo[b][1,4]thiazin-3(4H)-one] yielded an IC50 [1] of 2300 nM.

For `O=C(CC1Sc2ccccc2NC1=O)c1ccc(Cl)c(Cl)c1` (stereo not shown) [Compound 2e, 2-(2-(3,4-Dichlorophenyl)-2-oxoethyl)-2H-benzo[b][1,4]thiazin-3(4H)-one], the IC50 (VEGFR2 kinase) was 135 nM and the IC50 [1] was 4980 nM.

With `Cc1ccc(C(=O)CC2Sc3ccccc3NC2=O)cc1Cl` (stereo not shown) [Compound 2f, 2-(2-(3-Chloro-4-methylphenyl)-2-oxoethyl)-2H-benzo[b][1,4]thiazin-3(4H)-one] the IC50 (VEGFR2 kinase) was 97.2 nM and the IC50 [1] was 3700 nM.

Compound `CCOC(=O)CN1C(=O)C(CC(=O)c2ccc(F)cc2)Sc2ccccc21` (stereo not shown) [Compound 3a, Ethyl 2-(2-(2-(4-Fluorophenyl)-2-oxoethyl)-3-oxo-2H-benzo[b][1,4]thiazin-4(3H)-yl)acetate] has an IC50 (VEGFR2 kinase) of 632 nM and an IC50 [1] of 5190 nM.

`CCOC(=O)CN1C(=O)C(CC(=O)c2ccc(F)c(F)c2)Sc2ccccc21` (stereo not shown) [Compound 3b, Ethyl 2-(2-(2-(3,4-Difluorophenyl)-2-oxoethyl)-3-oxo-2H-benzo [b][1,4]thiazin-4 (3H)-yl)acetate] was tested, and the IC50 (VEGFR2 kinase) was 236 nM and the IC50 [1] was 4500 nM.

In the case of `CCOC(=O)CN1C(=O)C(CC(=O)c2ccc(Cl)cc2)Sc2ccccc21` (stereo not shown) [Compound 3c, Ethyl 2-(2-(2-(4-Chlorophenyl)-2-oxoethyl)-3-oxo-2H-benzo[b][1,4]thiazin-4(3H)-yl)acetate], the IC50 [1] is reported as 4390 nM, the inhibition at 125 µg/mL [3] is reported as 27.4% and the inhibition at 500 µg/mL [3] is reported as 53.6%.

`CCOC(=O)CN1C(=O)C(CC(=O)c2ccc(Br)cc2)Sc2ccccc21` (stereo not shown) [Compound 3d, Ethyl 2-(2-(2-(4-Bromophenyl)-2-oxoethyl)-3-oxo-2H-benzo[b][1,4]thiazin-4(3H)-yl)acetate] gave an IC50 [1] of 3310 nM.
